Here are results for one molecule from US11147786B2, “Methods of treating chronic dry eye disease using C16:1n7-palmitoleate and derivatives thereof” (Tersus Life Sciences, LLC, priority 2014, dated 2021).

Holding throughout (type): in vivo, human
Assay [1] concerns patients diagnosed with dry eye disease. In words: Tear osmolarity in patients with dry eye disease, Example 1. The procedure:
(§1) Patients diagnosed with dry eye disease (as determined by having tear osmolarity over 308 mOsms/L, which is the clinical minimum for dry eyes, per eye) were treated daily with a dietary supplement containing 210 mg of C16:1n7-palmitoleate for 30 days.
(§2) Tear osmolarity for left and right eyes were scored at day 1 and day 30, see Table 1. A tear osmolarity score of below 308 mOsms/L is normal, 308-320 mOsms/L is mild dry eyes, 320-340 mOsms/L is moderate dry eyes, and above 340 mOsms/L is severe dry eye. At day 30, patients also ranked their feeling of improvement of dry eye on a scale of 1-10, see Table 1.

Assay [2] deals with patients with moderate to severe dry eye symptoms/MGD. In words: Tear osmolarity (TL) in patients with dry eye symptoms/MGD, Example 2. The procedure: (§3) Twenty nine patients, each diagnosed as having moderate to severe dry eye symptoms/MGD, were selected for the study.
(§4) After the initial baseline evaluation, patients received daily doses of a dietary supplement containing 210 mg of C16:1n7-palmitoleate for over 30 days.
(§5) Tear osmolarity (TL) and MGD for left and right eyes (LE and RE respectively) were scored at Day 0 (baseline evaluation) and at the follow-up visit (FV), see Table 2. A tear osmolarity score of below 308 mOsms/L is normal, 308-320 mOsms/L is mild dry eyes, 320-340 mOsms/L is moderate dry eyes, and above 340 mOsms/L is severe dry eye. The terms ‘above’ and ‘below’ refer to values above and below the detectable range of the Tearlab diagnostic device respectively. Patients also recorded their comments regarding perceived improvements of their dry eye symptoms.

Assay [3] relates to patients diagnosed with dry eye disease. In words: Patient ranking of symptom improvement, Example 1. The settings on record: patient's ranking at day 30, 210 mg daily; one line per patient 1-8. The procedure:
as §1, §2

Assay [4] deals with patients with moderate to severe dry eye symptoms/MGD. In words: Meibomian gland dysfunction (MGD) score, Example 2. More on the design: key to Day 0 MGD RE / Day 0 MGD LE / FV MGD RE / FV MGD LE: 1=meibomian glands in all 3 regions secreting/cloudy; 2=meibomian glands in 2 out of 3 regions secreting/cloudy; 3=meibomian glands in 1 out of 3 regions secreting/cloudy; 4=no observable meibomian gland secretion in any of the 3 regions; 2+ and 2,3 are used interchangeably and mean more than ⅔<1; 2+ and 2,3 are used interchangeably and mean more than ⅔<1.
Description: as §3
Patients were classified as having none, mild, or moderate meibomian gland secretion blockage by evaluating the secretion of the meibomian glands in the nasal, central, and temporal regions of the lower eyelid. MGD was scored using a 0-4 grading scale, 4 correlating with severe dysfunction. A summary of the grading scale is provided below: • 1=meibomian glands in all 3 regions secreting/cloudy • 2=meibomian glands in 2 out of 3 regions secreting/cloudy • 3=meibomian glands in 1 out of 3 regions secreting/cloudy • 4=no observable meibomian gland secretion in any of the 3 regions • 2+ and 2,3 are used interchangeably and mean more than ⅔<1.
as §4, §5

The test system is the same in assay [5]. In words: Patient comments on perceived improvement of dry eye symptoms, Example 2. The settings on record: patient's comment after 210 mg daily for over 30 days; one line per patient. On the procedure:
as §3, §4, §5

Several values for one entry are separate records, joined by “and”; a condition that tells them apart may be missing. Equal values may be shown once. Entries after “also recorded” stand apart in the source; their conditions may differ.

Regarding `CCCCCC/C=C\CCCCCCCC(=O)O` [C16:1n7-palmitoleate], the “Tear Osmolarity Day 1, left eye” value in assay [1] (Day 1 (start of treatment), left eye, one line per patient 1-8, below 308 normal, 308-320 mild, 320-340 moderate, above 340 severe) is on record as “Left eye 294 mOsms/L; also recorded: Left eye 333 mOsms/L; also recorded: Left eye 312 mOsms/L; also recorded: Left eye 351 mOsms/L; also recorded: Left eye 322 mOsms/L; also recorded: Left eye 314 mOsms/L; also recorded: Left eye 347 mOsms/L; also recorded: Left eye 332 mOsms/L”. Further, the “Tear Osmolarity Day 1, right eye” value in assay [1] (Day 1 (start of treatment), right eye, one line per patient 1-8) is “Right eye 362 mOsms/L; also recorded: Right eye 305 mOsms/L; also recorded: Right eye 340 mOsms/L; also recorded: Right eye 382 mOsms/L; also recorded: Right eye 325 mOsms/L; also recorded: Right eye 341 mOsms/L; also recorded: Right eye 328 mOsms/L; also recorded: Right eye 367 mOsms/L”. The “Tear Osmolarity Day 30, left eye” value in assay [1] (Day 30 of daily dietary supplement with 210 mg, left eye, one line per patient 1-8) is “Left eye 300 mOsms/L; also recorded: Left eye 302 mOsms/L; also recorded: Left eye 293 mOsms/L; also recorded: Left eye 314 mOsms/L; also recorded: Left eye 301 mOsms/L; also recorded: Left eye 308 mOsms/L; also recorded: Left eye 313 mOsms/L”. Also, the “Tear Osmolarity Day 30, right eye” value in assay [1] (Day 30 of daily dietary supplement with 210 mg, right eye, one line per patient 1-8) is “Right eye 314 mOsms/L; also recorded: Right eye 300 mOsms/L; also recorded: Right eye 308 mOsms/L; also recorded: Right eye 302 mOsms/L; also recorded: Right eye 299 mOsms/L; also recorded: Right eye 307 mOsms/L; also recorded: Right eye 367 mOsms/L; also recorded: Right eye 310 mOsms/L”. For the same molecule, in assay [1] (patients 1, 2, 5 and 7, 30 days of treatment), the “Dry eye severity after 30 days in patients with at least one severe dry eye initially” value is given as “normal or very mild dry eyes”. Moreover, the “Day 0 TL LE” value in assay [2] (left eye, Day 0 baseline before treatment, one line per patient) was 311 mOsms/L and 307 mOsms/L (2×) and 349 mOsms/L (2×) and 312 mOsms/L and 314 mOsms/L (3×) and above (2×) and 324 mOsms/L and 339 mOsms/L and 308 mOsms/L and 364 mOsms/L (2×) and 361 mOsms/L and 317 mOsms/L (2×) and 302 mOsms/L and 326 mOsms/L and 356 mOsms/L and 320 mOsms/L and 313 mOsms/L and 358 mOsms/L and 323 mOsms/L and 327 mOsms/L. Besides, the “FV TL LE” value in assay [2] (left eye, follow-up visit after 210 mg daily for over 30 days, one line per patient) is 317 mOsms/L and 298 mOsms/L and 303 mOsms/L (2×) and 291 mOsms/L and 310 mOsms/L and 316 mOsms/L and 314 mOsms/L and 299 mOsms/L (2×) and 354 mOsms/L and 352 mOsms/L and 330 mOsms/L and 324 mOsms/L and 331 mOsms/L and 327 mOsms/L and 300 mOsms/L and above and 305 mOsms/L and below (2×) and 308 mOsms/L and 323 mOsms/L and 311 mOsms/L and 306 mOsms/L. In addition, in assay [2] (right eye, Day 0 baseline before treatment, one line per patient 1-29, above/below = outside detectable range of Tearlab device), the “Day 0 TL RE” value was 321 mOsms/L and 316 mOsms/L and 357 mOsms/L and 311 mOsms/L and 326 mOsms/L and 329 mOsms/L (2×) and 383 mOsms/L and 335 mOsms/L and below and 330 mOsms/L (2×) and 318 mOsms/L and 337 mOsms/L and 324 mOsms/L and 313 mOsms/L and 290 mOsms/L and 293 mOsms/L and 235 mOsms/L and 348 mOsms/L and 310 mOsms/L and 301 mOsms/L and 322 mOsms/L and 308 mOsms/L and 360 mOsms/L and 303 mOsms/L and 351 mOsms/L. Further, the “FV TL RE” value in assay [2] (right eye, follow-up visit after 210 mg daily for over 30 days, one line per patient) was 284 mOsms/L and 302 mOsms/L (3×) and 301 mOsms/L and 295 mOsms/L and 307 mOsms/L (2×) and 304 mOsms/L and 348 mOsms/L and 354 mOsms/L and 352 mOsms/L and 345 mOsms/L and 309 mOsms/L and 314 mOsms/L and 318 mOsms/L (2×) and 355 mOsms/L and below (2×) and 294 mOsms/L and 303 mOsms/L and 308 mOsms/L and 311 mOsms/L and 235 mOsms/L. Also, in assay [3], the “Symptom Improvement (Scale of 1-10)” value was 4 (2×) and 7 (2×) and 6 (2×) and 8 and 3. The “Day 0 MGD LE” value in assay [4] (MGD score 0-4 (4 severe), left eye, Day 0 baseline before treatment, one line per patient) was 2 (2×) and 4 (14×) and 2+ (2×) and 3 (8×). Besides, the “Day 0 MGD RE” value in assay [4] (MGD score 0-4 (4 severe), right eye, Day 0 baseline before treatment, one line per patient) is 3 (9×) and 4 (14×) and 2+ (2×) and 2. Also, the “FV MGD LE” value in assay [4] (MGD score 0-4, left eye, follow-up visit after 210 mg daily for over 30 days, one line per patient) is 1 (8×) and 3 (6×) and 2 (7×) and 1, and 2+ and 4 (4×) and 0. Also, the “FV MGD RE” value in assay [4] (MGD score 0-4, right eye, follow-up visit after 210 mg daily for over 30 days, one line per patient) is 1 (9×) and 3 (5×) and 2+ and 2 (6×) and 1, and 4 (5×) and 0. For the same molecule, the “MG secretion in patients with severe MGD scores initially” value in assay [4] (patients 1, 4-7, 11-13, 15-16, 20-22, 24 and 27) is “showed improvement in MG secretion”. In addition, in assay [5], the “Comment (perceived improvement of dry eye symptoms)” value is “great (4×) and good (19×) and poor and Better and happy (2×) and better”.
